How the values were obtained:
[1] = test system: heme oxygenase 1 protein in RAW264.7 cells; experiment: Heme oxygenase 1 induction (Western blot); type: cell-based; set-up: key: − represents no band observed; increase in the intensity of the band is represented as follows: +−<+<++; increase in the intensity of the band is represented as follows: +−<+<++; increase in the intensity of the band is represented as follows: +−<+<++; details: 12 hours
Description: RAW264.7 cells (ATCC TIB 71) were suspended in Dulbecco's modified Eagle's medium (Bio Whittaker, 12-604F) containing 10% fetal calf serum (Gibco) at a concentration of 3×10^5 cells/ml. 5 ml of the suspension was added to each well of a 6-well microtiter plate and the plate was incubated at 37° C. overnight in the presence of 5% CO2. 50 μl of a solution containing the compound (11) or the compound (14) at a concentration of 10 mM or 5 mM in water, 5 μl of a solution containing the compound (7) at a concentration of 50 mM or 25 mM in dimethyl sulfoxide, or 5 μl of a solution containing the compound (17) at a concentration of 100 mM or 50 mM in dimethyl sulfoxide was added to the well. The plate was incubated for 12 hours. A positive control for heme oxygenase 1 induction in which 5 μl of 3 mM solution of 15-deoxy-Δ12,14 prostaglandin J2 (Cayman Chemical, 18570) in dimethyl sulfoxide was added, and a negative control in which water was added were provided. The cells were recovered by detaching the cells from the plate using a scraper and suspended in 0.1 M tris-HCl buffer (pH 7.5) containing 0.05 mM pepstatin A (Sigma, P5318), 0.2 mM leupeptin (Sigma, L2884), 1 mM phenylmethylsulfonyl fluoride (Nacalai Tesque, 273-27), 10 mM ethylenediaminetetraacetic acid disodium salt and 0.1% Triton X-100. A supernatant obtained by centrifuging the suspension after freezing and thawing was used as a protein fraction. The content of protein in the protein fraction was determined using Micro BCA Protein Assay Reagent (a product of Pierce sold by Takara Shuzo, P7411). A sample from the protein fraction prepared as described above was mixed with an equal volume of 0.125 M tris-hydrochloride buffer (pH 6.8) containing 4% sodium lauryl sulfate (SDS), 2% 2-mercaptoethanol, 0.001% Bromophenol Blue and 20% glycerol. After treatment at 100° C. for 5 minutes, a portion corresponding to 10 μg of protein was loaded on 12.5% SDS-polyacrylamide gel and electrophoresed at a constant current of 20 mA. After electrophoresis, the gel was transferred to a PVDF membrane (Millipore, IPVH000 10) at a constant voltage of 15 V for 25 minutes using a blotting buffer (containing 48 mM tris, 39 mM glycine, 20% methanol and 0.0375% SDS) and Trans-Blot SD Cell Semi-Dry blotting apparatus (Bio-Rad) according to the attached protocol. After transferring, the PVDF membrane was blocked in a solution of Block Ace (Dainippon Pharmaceutical, UK-B25) at 4 C overnight. After blocking, the membrane washed three times in phosphate buffered saline containing 0.1% Tween 20 for 15 minutes with gentle shaking. The membrane was reacted in phosphate buffered saline containing 10% Block Ace, 0.1% Tween 20 and 200 ng/ml of anti-heme oxygenase 1 antibody (N-19; Santa Cruz, sc-7696) at room temperature for 1 hour with gentle shaking, and then washed three times in phosphate buffered saline containing 0.1% Tween 20 for 15 minutes with gentle shaking. The membrane was reacted in phosphate buffered saline containing 10% Block Ace, 0.1% Tween 20 and 0.1% peroxidase-labeled rabbit anti-goat IgG (H+L) antibody (Zymed, 61-1620) at room temperature for 1 hour with gentle shaking, and then washed five times in phosphate buffered saline containing 0.1% Tween 20 for 15 minutes with gentle shaking. The PVDF membrane was stained using Western Blot Chemiluminescence Reagent Plus (a product of NEN Life Science Products sold by Daiichi Pure Chemicals, NEL103) according to the attached protocol and exposed to an X-ray film (Kodak, CAT165 1454). After exposure, the film was developed using FPM800 (Fuji Film).
The intensity of the band depended on the concentration of the sample. In the table, the intensity of the band for heme oxygenase 1 protein is expressed by the mark +. Specifically, − represents no band observed, and increase in the intensity of the band is represented as follows: +−<+<++.

[2] = test system: prostaglandin E2 production in RAW264.7 cells; experiment: Inhibition of prostaglandin E2 production induction by LPS (ELISA); type: cell-based; details: compound (7), (14) or (17) at final concentration of 50, 100 or 100 μM, respectively
Description: RAW264.7 cells were suspended in Dulbecco's modified Eagle's medium (Bio Whittaker, Code. 12-604F) containing 10% fetal calf serum at a concentration of 3×10^5 cells/ml. 500 μl of the suspension was added to each well of a 48-well microtiter plate and the plate was incubated at 37° C. for 6 hours in the presence of 5% CO2. The compound (7), (14) or (17) prepared in Example 1 was added to the well at a final concentration of 50, 100 or 100 μM, respectively. The plate was incubated for additional 5 hours. 10 μl of 50 μg/ml lipopolysaccharide (LPS, Sigma, Code. L-2012) aqueous solution was then added to the well. After the plate was incubated for additional 12 hours, the amount of prostaglandin E2 was measured. As control groups, a group to which LPS was not added and a group to which the compound (7), (14) or (17) was not added were provided.
After cultivation, the amount of prostaglandin E2 in the culture supernatant was measured using Prostaglandin E2 ELISA Kit (Neogen, Code. 404110). All of the measurements were carried out in triplicate.
FIG. 21 illustrates the prostaglandin E2 concentration in the medium obtained by incubating under various culture conditions. In FIG. 21, the horizontal axis represents the culture conditions and the vertical axis represents the prostaglandin E2 concentration (ng/ml).

## O=C[C@H](O)[C@H]1OC[C@@H](O)[C@@H]1OC(=O)c1ccccc1 [Compound (7), 4-O-benzoyl-3,6-anhydro-D-galactose]
[1]; final concentration of 25 μM
  Intensity of band for heme oxygenase 1 protein: +
[1]; final concentration of 50 μM
  Intensity of band for heme oxygenase 1 protein: +
[2]
  inhibition of prostaglandin E2 production induction by LPS: inhibited the prostaglandin E2 production induction by LPS

## OCC1OC(OC2C(CO)OC(OC3C(CO)OC(OC4C(O)COC4C(O)C(O)O)C(O)C3O)C(O)C2O)C(O)C(O)C1O [Compound (14), 4-O-β-maltotoriosyl-3,6-anhydro-D-galactose]
[1]; final concentration of 50 μM
  Intensity of band for heme oxygenase 1 protein: +
[1]; final concentration of 100 μM
  Intensity of band for heme oxygenase 1 protein: + +
[2]
  inhibition of prostaglandin E2 production induction by LPS: inhibited the prostaglandin E2 production induction by LPS

## O=C[C@H](O)[C@H]1OC[C@@H](O)[C@@H]1OCc1ccccc1 [Compound (17), 4-O-benzyl-3,6-anhydro-D-galactose]
[1]; final concentration of 50 μM
  Intensity of band for heme oxygenase 1 protein: +
[1]; final concentration of 100 μM
  Intensity of band for heme oxygenase 1 protein: + +
[2]
  inhibition of prostaglandin E2 production induction by LPS: inhibited the prostaglandin E2 production induction by LPS

From US6518302B1, “Remedies” (Takara Shuzo Co., Ltd., priority 1999, dated 2003)
